Experimental data from US20250032454A1, “KDM1A INHIBITORS FOR THE TREATMENT OF DISEASE” (Imago Biosciences, Inc., priority 2021, published 2025).
Read-outs that look alike come from different tables or passages of the source.

Legend:
LSD1 = LSD1 (Homo sapiens, UniProt O60341); test: LSD1 fluorescence coupling enzyme assay (HRP/Amplex Red, H3(1-21)K4me2 peptide), 10-dose IC50; assay type: biochemical; conditions: 10 μM histone H3(1-21)K4me2 peptide substrate, 3-fold serial dilution from 100 μM
Excerpt: Assaying the inhibition of KDM1A can be determined in vitro, in cultured cells, and in animals. There are a variety of spectrophotometric methods to detect the results of demethylation of methylated lysines, viz., detecting the products of KDM1A demethylase oxidative activity on a peptide fragment of at least 18 amino acids representing the N-terminus of the histone H3 substrate that contains a monomethyl at the fourth lysine residue. Hydrogen peroxide, one product of the KDM1A demethylase reaction, reacts with horseradish peroxidase and dihydroxyphenoxazine (ADHP) to produce the fluorescent compound resorufin (excitation=530-560 nm: emission=590 nm). The KDM1A demethylase enzyme activity can be obtained from mammalian cells or tissues expressing KDM1A from an endogenous or recombinant gene and purified or assayed from a whole cell extract. These methods can be used to determine the concentration of the disclosed compounds can inhibit fifty percent of the enzyme activity (IC50).
Alternatively, the production of H2O2 during the KDM1A reaction can be detected fluometrically. In this system, the production of H2O2 is detected in the HDM assay buffer after exposure to substrate, co-factor and enzyme using ADHP (10-Acetyl-3, 7-dihydroxyphenoxazine) as a fluorogenic substrate for horse radish peroxidase (HRP). […] The florescent product is resorufin. Sensitivity can be as low as 10-15 M of target protein. The signal is read using a fluorescence microplate reader at excitation and emission wavelengths of 530-560 nm and 590 nm, respectively.
Compounds were tested in a 10-dose IC50 mode fluorescence coupling enzyme assay with 3-fold serial dilution in duplicate starting at 100 μM. The production of FAD-dependent H2O2 as a result of demethylase activity of LSD1 on 10 μM histone H3(1-21)K4me2 peptide substrate was measured by coupling with HRP and Amplex Red to yield resorufin (fluorescence measured at Ex/Em=535/590 nm on EnVision, Perkin Elmer).

MV4;11 cells = test: Cell Titer-Glo cell growth inhibition in MV4;11 cell line (Day 5 / Day 10); assay type: cell-based; conditions: Homo sapiens
Method: Cell growth inhibition against MV4;11 cells was confirmed for the synthetic compounds. The Cell Titer-Glo Luminescent Cell Viability Assay (Promega, USA) was used to determine the number of viable cells in culture based on quantitation of the ATP present, which signals the presence of metabolically active cells. This assay was run in a 96-well plate format arrayed in a 10-point dose curve, ranging from 0 to 50 µM with 4-fold dilutions for each compound. Cells are seeded on Day 0 at 3750 cells per well. At Day 5, a portion of each well is assayed for viability according to the Cell Titer-Glo protocol. Briefly, cells/plates were centrifuged at 1100×g for 5 minutes. 100 μL of media was removed from each well and replaced with 100 μL of CellTiter-Glo. The plates were shaken at room temperature for 10 minutes and measured on a luminescence plate reader. Another portion of each well from the Day 5 plate is used to seed a new 96 plate containing fresh compound and media set up in the equivalent 10-point dose curve array in order to continue the cell growth inhibition assay for another 5 days. A final timepoint is collected at Day 10 using the Cell Titer-Glo protocol. Luminescence was detected on an En Vision® Multilabel Plate Reader (Perkin Elmer, Waltham, Mass.) and IC50 determination was made using Graph Pad Prism software.

[1] = MV4-11, 120 h, Day 5, read-out: Cell Titer-Glo IC50 (5 d)
[2] = MV4-11, 240 h, Day 10, read-out: Cell Titer-Glo IC50 (10 d)

IC50 (LSD1) | IC50 (MV4;11 cells; [1]) | IC50 (MV4;11 cells; [2]) | Compound | IC50 (MV4;11 cells; 120 h, Day 5, read-out: Cell Titer-Glo IC50 (5 d)) | IC50 (MV4;11 cells; 240 h, Day 10, read-out: Cell Titer-Glo IC50 (10 d))
< 500 nM | < 500 nM | < 500 nM | COc1ccc(-n2nc(NCC3CCCNCC3)cc2-c2ccc(C#N)c(F)c2)cc1 (single isomer, unassigned) [Example 22a, 4-(3-((azepan-4-ylmethyl)amino)-1-(4-methoxyphenyl)-1H-pyrazol-5-yl)-2-fluorobenzonitrile] |  | 
1000 to 10000 nM | < 500 nM |  | Cn1cc2cc(-n3nc(NC[C@@H]4CCCNC4)cc3-c3ccc(C#N)c(F)c3)ccc2n1 (single isomer, unassigned) [Example 9a] |  | 
500 to 1000 nM | < 500 nM | < 500 nM | Cn1cc2ccc(-n3nc(NC[C@H]4CCC[C@H](N)C4)cc3-c3ccc(C#N)c(F)c3)cc2n1 [Example 67, 4-(3-((((1S,3S)-3-aminocyclohexyl)methyl)amino)-1-(2-methyl-2H-indazol-6-yl)-1H-pyrazol-5-yl)-2-fluorobenzonitrile] |  | 
< 500 nM | < 500 nM | < 500 nM | N#Cc1ccc(-c2cc(NC[C@@H]3CCCNCC3)nn2-c2ccc(C(=O)N3CCCC3)cc2)cc1F (single isomer, unassigned) [Example 25a] |  | 
< 500 nM | < 500 nM |  | Cn1cc2cc(-n3nc(NCC4CCCNC4)cc3-c3ccc(C#N)c(F)c3)ccc2n1 (centres unmarked) [Example 9, 2-Fluoro-4-(1-(2-methyl-2H-indazol-5-yl)-3-((piperidin-3-ylmethyl)amino)-1H-pyrazol-5-yl)benzonitrile] |  | 
< 500 nM | 1000 to 10000 nM | < 500 nM | N#Cc1ccc(-c2cc(NC[C@@H]3CCC[C@@H](N)C3)nn2-c2ccc3nn(CCO)cc3c2)cc1F [Example 70, 4-(3-((((1R,3R)-3-aminocyclohexyl)methyl)amino)-1-(2-(2-hydroxyethyl)-2H-indazol-5-yl)-1H-pyrazol-5-yl)-2-fluorobenzonitrile] |  | 
1000 to 10000 nM | 1000 to 10000 nM |  | CN[C@@H]1CCCC(CNc2cc(-c3ccc(C#N)c(F)c3)n(-c3ccc(OC)cc3)n2)C1 (single isomer, unassigned) [Example 32b] |  | 
< 500 nM | 1000 to 10000 nM | < 500 nM | Cn1cc2cc(-n3nc(NC[C@@H]4CCC[C@@H](N)C4)cc3-c3ccc(C#N)c(F)c3)ccc2n1 [Example 13RR, 4-(3-((((1R,3R)-3-aminocyclohexyl)methyl)amino)-1-(2-methyl-2H-indazol-5-yl)-1H-pyrazol-5-yl)-2-fluorobenzonitrile] |  | 
< 500 nM | < 500 nM | < 500 nM | N#Cc1ccc(-c2cc(NC[C@@H]3CCCNCC3)nn2-c2ccc(N3CCS(=O)(=O)CC3)cc2)cc1F (single isomer, unassigned) [Example 26a] |  | 
500 to 1000 nM | 500 to 1000 nM |  | Cn1cc2cc(-n3nc(NC[C@@H]4CCNC4)cc3-c3ccc(C#N)c(F)c3)ccc2n1 [Example 21R, (R)-2-fluoro-4-(1-(2-methyl-2H-indazol-5-yl)-3-((pyrrolidin-3-ylmethyl)amino)-1H-pyrazol-5-yl)benzonitrile] |  | 
< 500 nM | < 500 nM |  | COc1ccc(-n2nc(NCC3CCCNC3)cc2-c2ccc(C#N)c(F)c2)cc1 (centres unmarked) [Example 3, 2-fluoro-4-(1-(4-methoxyphenyl)-3-((piperidin-3-ylmethyl)amino)-1H-pyrazol-5-yl)benzonitrile] |  | 
< 500 nM | < 500 nM |  | COc1ccc(-n2nc(NC[C@H]3CC[C@@H](N)C3)cc2-c2ccc(C#N)c(F)c2)cc1 (single isomer, unassigned) [Example 4a] |  | 
< 500 nM | < 500 nM | < 500 nM | N#Cc1ccc(-c2cc(NC[C@H]3CCC[C@H](N)C3)nn2-c2ccc3c(cnn3-c3ccccc3)c2)cc1F [Example 15, 4-(3-((((1S,3S)-3-aminocyclohexyl)methyl)amino)-1-(1-phenyl-1H-indazol-5-yl)-1H-pyrazol-5-yl)-2-fluorobenzonitrile] |  | 
< 500 nM | 500 to 1000 nM | < 500 nM | Cn1cc(-c2cccc(-n3nc(NC[C@H]4CCC[C@H](N)C4)cc3-c3ccc(C#N)c(F)c3)c2)cn1 [Example 55, 4-(3-((((1S,3S)-3-aminocyclohexyl)methyl)amino)-1-(3-(1-methyl-1H-pyrazol-4-yl)phenyl)-1H-pyrazol-5-yl)-2-fluorobenzonitrile] |  | 
< 500 nM | 1000 to 10000 nM | < 500 nM | N#Cc1ccc(-c2cc(NC[C@H]3CCC[C@H](N)C3)nn2-c2cccc(-c3cnn(CCO)c3)c2)cc1F [Example 57, 4-(3-((((1S,3S)-3-aminocyclohexyl)methyl)amino)-1-(3-(1-(2-hydroxyethyl)-1H-pyrazol-4-yl)phenyl)-1H-pyrazol-5-yl)-2-fluorobenzonitrile] |  | 
< 500 nM | < 500 nM | < 500 nM | N#Cc1ccc(-c2cc(NC[C@H]3CCC[C@H](N)C3)nn2-c2ccc(N3CCN(CCO)CC3)cc2)cc1F [Example 46, 4-(3-((((1S,3S)-3-aminocyclohexyl)methyl)amino)-1-(4-(4-(2-hydroxyethyl)piperazin-1-yl)phenyl)-1H-pyrazol-5-yl)-2-fluorobenzonitrile] |  | 
1000 to 10000 nM | 500 to 1000 nM | < 500 nM | N#Cc1ccc(-c2cc(NCC3CCCNCC3)nn2-c2ccc(C(=O)N3CCCC3)cc2)cc1F (centres unmarked) [Example 25, 4-(3-((azepan-4-ylmethyl)amino)-1-(4-(pyrrolidine-1-carbonyl)phenyl)-1H-pyrazol-5-yl)-2-fluorobenzonitrile] |  | 
< 500 nM | 500 to 1000 nM | < 500 nM | N#Cc1ccc(-c2cc(NC[C@H]3CCC[C@H](N)C3)nn2-c2cccc(-c3cn[nH]c3)c2)cc1F [Example 53, 4-(1-(3-(1H-pyrazol-4-yl)phenyl)-3-((((1S,3S)-3-aminocyclohexyl)methyl)amino)-1H-pyrazol-5-yl)-2-fluorobenzonitrile] |  | 
1000 to 10000 nM | 1000 to 10000 nM | < 500 nM | N#Cc1ccc(-c2cc(NC[C@H]3CCC[C@H](N)C3)nn2-c2cccc(N3CCS(=O)(=O)CC3)c2)cc1F [Example 51, 4-(3-((((1S,3S)-3-aminocyclohexyl)methyl)amino)-1-(3-(1,1-dioxidothiomorpholino)phenyl)-1H-pyrazol-5-yl)-2-fluorobenzonitrile] |  | 
< 500 nM | < 500 nM | < 500 nM | N#Cc1ccc(-c2cc(NCC3CCCNCC3)nn2-c2ccc(N3CCCC3)cc2)cc1F (centres unmarked) [Example 24, 4-(3-((azepan-4-ylmethyl)amino)-1-(4-(pyrrolidin-1-yl)phenyl)-1H-pyrazol-5-yl)-2-fluorobenzonitrile] |  | 
1000 to 10000 nM |  | > 10000 nM | COc1ccc(-n2nc(N3CCCC4CCCCC43)cc2-c2ccc(C#N)c(F)c2)cc1 (centres unmarked) [Example 82, 2-fluoro-4-(1-(4-methoxyphenyl)-3-(octahydroquinolin-1(2H)-yl)-1H-pyrazol-5-yl)benzonitrile] |  | 
1000 to 10000 nM | 1000 to 10000 nM | 1000 to 10000 nM | COc1ccc(-n2nc(NCC3CC3N)cc2-c2ccc(C#N)c(F)c2)cc1 (racemic) [Example 29, (±)-trans-4-(3-(((2-aminocyclopropyl)methyl)amino)-1-(4-methoxyphenyl)-1H-pyrazol-5-yl)-2-fluorobenzonitrile] |  | 
< 500 nM | 1000 to 10000 nM | < 500 nM | N#Cc1ccc(-c2cc(NC[C@H]3CCCNCC3)nn2-c2ccc(C(=O)N3CCCC3)cc2)cc1F (single isomer, unassigned) [Example 25b] |  | 

Compound | IC50 (LSD1) | IC50 (MV4;11 cells; [1]) | IC50 (MV4;11 cells; [2]) | IC50 (MV4;11 cells; 120 h, Day 5, read-out: Cell Titer-Glo IC50 (5 d)) | IC50 (MV4;11 cells; 240 h, Day 10, read-out: Cell Titer-Glo IC50 (10 d))
Cn1ncc2cc(-n3nc(NCC45CCN(CC4)CC5)cc3-c3ccc(C#N)c(F)c3)ccc21 [Example 23, 2-fluoro-4-(1-(1-methyl-1H-indazol-5-yl)-3-((quinuclidin-4-ylmethyl)amino)-1H-pyrazol-5-yl)benzonitrile] | < 500 nM |  |  | < 500 nM | < 500 nM
